The structures appear in SMILES notation.

Broadly, the EC50 is the concentration that produces a half-maximal response. Lower therefore signals an effect from little substance.

The subject of one assay is AAV-HBV. Briefly: In vivo antiviral efficacy in AAV-HBV mouse model. The arrangement: species or system C57BL/6 mice. The settings on record: 30 mg/kg PO QOD, after the 6-week treatment, mouse serum. The protocol:
Example 6-A was evaluated for its in vivo antiviral efficacy using an AAV-HBV mouse model. This mouse model for HBV infection was generated by injecting C57BL/6 mice with a recombinant adeno-associated virus (AAV) carrying a replicable HBV (hepatitis B virus) genome (AAV-HBV). In 3 weeks post infection, high levels of HBV viral markers, such as HBV genomic DNA and HBsAg (HBV surface antigen), was detected in the sera of infected mice. With persistent HBV viremia and fully competent immune system, the AAV-HBV model is suitable for investigating the in vivo efficacy of Example 6-A.
To establish the AAV-HBV model, a total of fifteen 4-week old male C57BL/6 mice, specific pathogen free, were purchased from Shanghai Laboratory Animal Center of Chinese Academy of Sciences (SLAC) and housed in an animal care facility in individually ventilated cages under controlled temperature and light conditions following the Institutional Animal Care guidelines. AAV-HBV virus stock was available from Beijing FivePlus Molecular Medicine Institute (Beijing, China). C57BL/6 mice were injected with 200 μL of recombinant virus in saline buffer through tail vein injection. The mice were bled on day 14 post injection to monitor HBsAg, HBeAg, and HBV genomic DNA in serum. On day 29 post injection, the fifteen mice were randomly recruited into 3 groups based on their HBV biomarker levels, and started to receive treatments, as shown in Table 3.
Mice in group 1 were treated with vehicle placebo (2% Klucel LF, 0.1% Polysorbate 80, and 0.1% Parabens in water); mice in group 2 and 3 were treated with Example 6-A at 30 mg/kg and 100 mg/kg respectively, every other day (QOD). All the mice were orally dosed for a total of 6 weeks. Serum samples were collected twice a week to monitor HBV biomarkers. Serum HBsAg was measured using CLIA kits (Autobio Diagnostics Co., Ltd, Zhengzhou, China) according to the manufacturer's instructions. The lower limit of detection for HBsAg was 0.1 ng/mL. Serum dilution of 500-fold (for HBsAg) was used to obtain values within the linear range of the standard curve. Serum HBV DNA was extracted using a MagNA Pure 96 DNA and Viral NA Small Volume Kit (Roche) following the manufacturer's instructions. The DNA samples were analyzed by real-time quantitative PCR (qPCR) using a HBV-specific primer and probe set for specific amplification and detection of a 128 bp HBV genome region from the nucleotide 2969 to 3096.
For the compound `CC(=O)OC(C1CC1)[C@H]1O[C@@H](n2c(=O)sc3cnc(N)nc32)CS1` (single isomer, unassigned) [Example 6-A], the “reduction in HBV DNA” value is reported as “more than 2 log” and the “reduction in HBsAg” value is listed as 0.8 log.

The same assay, now with this note: 100 mg/kg PO QOD, at the end of the treatment (6 weeks), mouse serum.
For `CC(=O)OC(C1CC1)[C@H]1O[C@@H](n2c(=O)sc3cnc(N)nc32)CS1` (single isomer, unassigned) [Example 6-A], the “reduction in HBV DNA” value is “more than 3 log” and the “reduction in HBsAg” value came to 2.4 log.

Another assay addresses T1, human TLR7 (Homo sapiens, UniProt Q9NYK1).
T1 sequence (Q9NYK1 27-1049): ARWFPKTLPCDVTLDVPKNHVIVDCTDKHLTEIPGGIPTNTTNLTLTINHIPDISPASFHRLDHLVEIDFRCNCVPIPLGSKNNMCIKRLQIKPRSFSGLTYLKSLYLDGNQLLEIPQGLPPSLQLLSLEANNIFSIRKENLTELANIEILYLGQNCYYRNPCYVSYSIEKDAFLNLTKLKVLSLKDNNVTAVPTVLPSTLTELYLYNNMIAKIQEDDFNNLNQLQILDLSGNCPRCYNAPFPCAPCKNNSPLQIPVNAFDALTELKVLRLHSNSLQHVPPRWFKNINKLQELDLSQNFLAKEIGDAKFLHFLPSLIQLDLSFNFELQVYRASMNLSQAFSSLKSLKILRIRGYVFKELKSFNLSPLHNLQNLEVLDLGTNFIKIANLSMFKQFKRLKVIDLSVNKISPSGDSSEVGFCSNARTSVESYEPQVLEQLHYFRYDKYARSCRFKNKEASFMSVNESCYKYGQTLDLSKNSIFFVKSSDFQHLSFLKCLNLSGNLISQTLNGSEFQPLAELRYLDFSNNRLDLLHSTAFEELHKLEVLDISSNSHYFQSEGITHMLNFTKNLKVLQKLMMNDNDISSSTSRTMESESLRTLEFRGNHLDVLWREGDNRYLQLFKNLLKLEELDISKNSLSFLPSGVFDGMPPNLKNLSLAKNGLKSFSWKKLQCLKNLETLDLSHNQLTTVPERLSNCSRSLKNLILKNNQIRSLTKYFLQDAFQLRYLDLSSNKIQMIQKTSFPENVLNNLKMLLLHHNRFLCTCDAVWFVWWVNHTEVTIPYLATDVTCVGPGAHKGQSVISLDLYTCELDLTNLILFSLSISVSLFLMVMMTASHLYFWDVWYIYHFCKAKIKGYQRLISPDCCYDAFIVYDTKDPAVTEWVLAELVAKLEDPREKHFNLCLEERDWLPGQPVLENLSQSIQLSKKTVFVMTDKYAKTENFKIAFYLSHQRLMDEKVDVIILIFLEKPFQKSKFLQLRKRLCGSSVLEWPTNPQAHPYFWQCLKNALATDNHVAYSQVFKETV
Briefly: HEK293-Blue-hTLR-7 cells assay (SEAP reporter). The class given is cell-based. The settings on record: 20 hours incubation. An excerpt:
A stable HEK293-Blue-hTLR-7 cell line was purchased from InvivoGen (Cat.#: hkb-ht1r7, San Diego, Calif., USA). These cells were designed for studying the stimulation of human TLR7 by monitoring the activation of NF-κB. A SEAP (secreted embryonic alkaline phosphatase) reporter gene was placed under the control of the IFN-β minimal promoter fused to five NF-κB and AP-1-binding sites. The SEAP was induced by activating NF-κB and AP-1 via stimulating HEK-Blue hTLR7 cells with TLR7 ligands. Therefore the reporter expression was regulated by the NF-κB promoter upon stimulation of human TLR7 for 20 hours. The cell culture supernatant SEAP reporter activity was determined using QUANTI-Blue™ kit (Cat.#: rep-qb1, Invivogen, San Diego, Calif., USA) at a wavelength of 640 nm, a detection medium that turns purple/blue in the presence of alkaline phosphatase.
HEK293-Blue-hTLR7 cells were incubated at a density of 250,000˜450,000 cells/mL in a volume of 180 μL in a 96-well plate in Dulbecco's Modified Eagle's medium (DMEM) containing 4.5 g/L glucose, 50 U/mL penicillin, […] streptomycin, […] Normocin, 2 mM L-glutamine, 10% (v/v) heat-inactivated fetal bovine serum for 24 h. Then the HEK293-Blue-hTLR-7 cells were incubated with addition of 20 μL test compound in a serial dilution in the presence of final DMSO at 1% and perform incubation under 37° C. in a CO2 incubator for 20 hours. Then 20 μL of the supernatant from each well was incubated with 180 μL Quanti-blue substrate solution at 37° C. for 2 h and the absorbance was read at 620˜655 nm using a spectrophotometer. The signalling pathway that TLR7 activation leads to downstream NF-κB activation has been widely accepted, and therefore similar reporter assay was also widely used for evaluating TLR7 agonist (Tsuneyasu Kaisho and Takashi Tanaka, Trends in Immunology, Volume 29, Issue 7, July 2008, […]; Hiroaki Hemmi et al, Nature Immunology 3, 196-200 (2002).
As for `Nc1nc2c(sc(=O)n2[C@H]2CS[C@@H](C(O)C3CC3)O2)c(=O)[nH]1` (single isomer, unassigned) [Example 4-B], the EC50 is 306 µM.

Turning to `CC[C@H](O)C1OC(n2c(=O)sc3c(=O)[nH]c(N)nc32)[C@H](C)S1` (single isomer, unassigned) [Example 22-A], the EC50 is 4.7 µM.

Compound `CC#CC(O)[C@H]1O[C@@H](n2c(=O)sc3c(=O)[nH]c(N)nc32)CS1` (single isomer, unassigned) [Example 10-B] displayed a concentration for a half-maximal effect (EC50) of 122 µM. This EC50 is about 26-fold higher than that of the compound before.

The compound `CC(C)CC(O)[C@H]1O[C@@H](n2c(=O)sc3c(=O)[nH]c(N)nc32)CS1` (single isomer, unassigned) [Example 17-B] came in with a concentration giving a half-maximal response (EC50) of 93.6 µM.

`CC#CC(O)C1OC(n2c(=O)sc3c(=O)[nH]c(N)nc32)[C@H](C)S1` (single isomer, unassigned) [Example 24-A] displayed a concentration for a half-maximal effect (EC50) of 10.1 µM.

The compound `C[C@@H]1S[C@@H](CO)OC1n1c(=O)sc2c(=O)[nH]c(N)nc21` (single isomer, unassigned) [Example 21-A] showed a half-maximal effective concentration (EC50) of 53.9 µM. Compared with the last compound, the EC50 is about 5.3-fold higher.

With `C=CCC1SC(CO)OC1n1c(=O)sc2c(=O)[nH]c(N)nc21` (single isomer, unassigned) [Example 25-A, 3-[4-Allyl-2-(hydroxymethyl)-1,3-oxathiolan-5-yl]-5-amino-6H-thiazolo[4,5-d]pyrimidine-2,7-dione], a half-maximal response (EC50) required 178 µM. Against the preceding compound, the EC50 is about 3.3-fold higher.

In turn, `C[C@@H]1S[C@@H](C(O)C2CC2)OC1n1c(=O)sc2c(=O)[nH]c(N)nc21` (single isomer, unassigned) [Example 23-B] gave a concentration for a half-maximal effect (EC50) of 31.5 µM. Against the preceding compound, the EC50 is about 5.7-fold lower.

Consider `Nc1nc2c(sc(=O)n2C2CSC(CO)O2)c(=O)[nH]1` (stereo not shown) [Example 1, 5-Amino-3-[2-(hydroxymethyl)-1,3-oxathiolan-5-yl]-6H-thiazolo[4,5-d] pyrimidine-2,7-dione], for which the EC50 was found to be 97 µM.

Take `CCCC(O)[C@H]1O[C@@H](n2c(=O)sc3c(=O)[nH]c(N)nc32)CS1` (single isomer, unassigned) [Example 9-A]: the response was half-maximal at 10 µM (EC50).

For `Nc1nc2c(sc(=O)n2[C@H]2CS[C@@H](CO)O2)c(=O)[nH]1` [Example 2-A, 5-amino-3-[(2S,5R)-2-(hydroxymethyl)-1,3-oxathiolan-5-yl]-6H-thiazolo[4,5-d]pyrimidine-2,7-dione], the concentration for a half-maximal effect (EC50) turned out to be 125 µM.

Regarding `CC#CC(OC(C)=O)[C@H]1O[C@@H](n2c(=O)sc3c(=O)[nH]c(N)nc32)CS1` (single isomer, unassigned) [Example 13-A], it took 151 µM to reach a half-maximal effect (EC50).

In the case of `C[C@@H]1S[C@@H](C(O)C2CC2)OC1n1c(=O)sc2c(=O)[nH]c(N)nc21` (single isomer, unassigned) [Example 23-A], a half-maximal response (EC50) required 4.5 µM. This EC50 lies about 34-fold lower than the previous one.

Take `Nc1nc2c(sc(=O)n2[C@H]2CS[C@@H](C(O)C#CC3CC3)O2)c(=O)[nH]1` (single isomer, unassigned) [Example 14-A]: the half-maximal effective concentration (EC50) amounted to 54.3 µM. Against the preceding compound, the EC50 is about 12-fold higher.

`CCCC(O)[C@H]1O[C@@H](n2c(=O)sc3c(=O)[nH]c(N)nc32)CS1` (single isomer, unassigned) [Example 9-B]: the EC50 turned out to be 160 µM.

On to `C=CCC(O)[C@H]1O[C@@H](n2c(=O)sc3c(=O)[nH]c(N)nc32)CS1` (single isomer, unassigned) [Example 18-A], for which the concentration for a half-maximal effect (EC50) was found to be 29 µM.

For the compound `CC#CC(O)[C@H]1O[C@@H](n2c(=O)sc3c(=O)[nH]c(N)nc32)CS1` (single isomer, unassigned) [Example 10-A], a half-maximal response (EC50) required 7.6 µM.

In the case of `CC(=O)OC(C1CC1)[C@H]1O[C@@H](n2c(=O)sc3c(=O)[nH]c(N)nc32)CS1` (single isomer, unassigned) [Example 7-A], the half-maximal effective concentration (EC50) turned out to be 61.7 µM.

`CC(C)CC(O)[C@H]1O[C@@H](n2c(=O)sc3c(=O)[nH]c(N)nc32)CS1` (single isomer, unassigned) [Example 17-A] displayed a 50% effective concentration (EC50) of 63.3 µM.

`C#CC(O)[C@H]1O[C@@H](n2c(=O)sc3c(=O)[nH]c(N)nc32)CS1` (single isomer, unassigned) [Example 15-A] yielded an EC50 of 16.7 µM.

On to `Nc1nc2c(sc(=O)n2[C@H]2CS[C@@H](C(O)c3cccs3)O2)c(=O)[nH]1` (single isomer, unassigned) [Example 20-A], for which the concentration for a half-maximal effect (EC50) came out at 33.9 µM. Compared with the last compound, the EC50 is about 2-fold higher.

`CCC(O)[C@H]1O[C@@H](n2c(=O)sc3c(=O)[nH]c(N)nc32)CS1` (single isomer, unassigned) [Example 8-A] displayed an EC50 of 16.5 µM.

`CC(O)[C@H]1O[C@@H](n2c(=O)sc3c(=O)[nH]c(N)nc32)CS1` (single isomer, unassigned) [Example 16-A] came in with a 50% effective concentration (EC50) of 46.5 µM.

`CCCCC(O)[C@H]1O[C@@H](n2c(=O)sc3c(=O)[nH]c(N)nc32)CS1` (single isomer, unassigned) [Example 19-A] returned an EC50 of 32.9 µM.
